Source: US20210198284A1, “GOLD COMPOSITIONS AND METHODS OF USE THEREOF” (THE UNIVERSITY OF MASSACHUSETTS, priority 2018, published 2021)

How the values were obtained:
Type in all cases: cell-based
[1] = system: C. neoformans ATCC 208821; assay: Antifungal MIC; details: C. neoformans ATCC 208821
[2] = system: C. albicans ATCC 90028; assay: Antifungal MIC
[3] = system: K. pneumoniae ATCC 700603; assay: Antibacterial assay, MIC/MBC by broth microdilution (CLSI); details: K. pneumoniae ATCC 700603; repeated twice, a/b = both values
Summary of the method: (§1)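 CLSI broth microdilution in cation-adjusted Mueller Hinton broth, log-phase inoculum diluted to 7.5×10^5 CFU/mL before 1:1 mixing with two-fold compound dilutions, triplicates, 18 h at 37 °C static. MIC: >90% inhibition by OD600; MBC: lowest concentration giving no colonies after 5 μL spotted on agar, 18 h, 37 °C.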

[4] = system: S. aureus JE2 (USA300); assay: as above; details: S. aureus JE2 (USA300); for MIC: repeated twice, a/b = both values
Summary of the method: as §1

[5] = system: E. coli ATCC 25922; assay: as above; details: for MIC: repeated twice, a/b = both values
Summary of the method: as §1

[6] = system: P. aeruginosa NCTC 13437; assay: as above; details: P. aeruginosa NCTC 13437; for MIC: repeated twice, a/b = both values
Summary of the method: as §1

[7] = system: A. baumannii NCTC 13420; assay: as above; details: A. baumannii NCTC 13420; for MIC: repeated twice, a/b = both values
Summary of the method: as §1

[8] = system: E. cloacae NCTC 13405; assay: as above; details: E. cloacae NCTC 13405; for MIC: repeated twice, a/b = both values
Summary of the method: as §1

[9] = system: E. faecalis ATCC 700221; assay: as above; details: for MIC: repeated twice, a/b = both values
Summary of the method: as §1

[10] = system: A549 cells; assay: Cytotoxicity assay (resazurin); details: 20 h, mean±S.E.M. from two independent experiments
Experimental: Sample preparation. The compounds were dissolved in DMSO at 12.8 mg/mL as the stock solutions, except for compounds 9-17, which were directly dissolved in the culture medium at 12.8 mg/mL. The stock solutions were diluted by the culture medium to the testing concentration at 128 μg/mL (compound 9-17 were diluted to 1,280 μg/mL). The solutions were then serially diluted two fold in a 96-well plate and were used in the cytotoxicity assay immediately.
Cell culture and cytotoxicity assay. A549 cells (ATCC CCL-185) were cultured in high glucose DMEM (Sigma-Aldrich, D6429) supplemented with 10% FBS, 1% penicillin-streptomycin solution (Sigma-Aldrich, P4333), 1% gentamicin solution (Sigma-Aldrich, G1272) and 1% amphotericin B solution (Sigma-Aldrich, A2942) at 37° C. in a humidified atmosphere containing 5% CO2. After cells reached 80%˜90% confluency, they were detached and counted using an Invitrogen Countess automated cell counter. Cells with viability over 90% were seeded at a density of 5×10^3 cells per well in 96-well cell culture plates. After overnight culture, the culture medium in each well removed with a pipet. 80 μL of the compound solutions from each well of the 96-well plate prepared above were transferred to this 96-well plate containing the cells, and the plates were incubated for 20 h. After addition of 8 μL of 110 μg/mL resazurin, the plates were incubated for further 3 h at 37° C. in 5% CO2. The fluorescence intensity was measured using a Tecan M200 Infinite Pro microplate reader at excitation 560 nm, emission 590 nm. IC50 were calculated by curve fitting the inhibition values vs. log(concentration) using GraphPad's Prism. The cytotoxicity assays (in triplicate) were repeated twice using freshly prepared cells and compound solutions.

SMILES: CC[P+](CC)(CC)[Au-][S][C@@H]1O[C@H](COC(C)=O)[C@@H](OC(C)=O)[C@H](OC(C)=O)[C@H]1NC(=O)C(Cl)(Cl)Cl [Compound 4, (3,4,6-Tri-O-acetyl-2-N-trichloroactyl-1-thio-β-D-glucopyranosato) (triethylphosphine) gold (I)]
- MIC [1]: >32 µg/mL
- MIC [2]: >32 µg/mL
- MIC [3]: >328 μM/mL
- MBC (in brackets) [4]: (0.01) μM/mL
- MIC [4]: 0.01 μM/mL
- MBC (in brackets) [5]: 21 (21) μM/mL
- MIC [5]: 21 (21) μM/mL
- MIC [6]: >328 μM/mL
- MBC (in brackets) [7]: 164 μM/mL
- MIC [7]: 82 μM/mL
- MIC [8]: >328 μM/mL
- MBC (in brackets) [9]: (0.2) μM/mL
- MIC [9]: 0.08 μM/mL
- IC50 against A549 cells [10]: 7.9 ± 0.1 µg/mL

SMILES: CC[P+](CC)(CC)[Au-][S][C@@H]1O[C@H](COC(C)=O)[C@@H](O[C@@H]2O[C@H](COC(C)=O)[C@H](OC(C)=O)[C@H](OC(C)=O)[C@H]2OC(C)=O)[C@H](OC(C)=O)[C@H]1OC(C)=O [Compound 6, [2,3,4,6-Tetra-O-acetyl-β-D-galactopyranosyl (1→4)-2,3,6-tri-O-acetyl-1-thio-β-D-glucopyranosato](triethylphosphine) gold(I)]
- MIC [1]: >32 µg/mL
- MIC [2]: >32 µg/mL
- MIC [3]: >265 μM/mL
- MBC (in brackets) [4]: (0.1) μM/mL
- MIC [4]: 0.03 μM/mL
- MBC (in brackets) [5]: 33 (33) μM/mL
- MIC [5]: 33 (33) μM/mL
- MBC (in brackets) [6]: 132 (132) μM/mL
- MIC [6]: 132 (132) μM/mL
- MBC (in brackets) [7]: 132 μM/mL
- MIC [7]: 66 μM/mL
- MBC (in brackets) [8]: 265 (265) μM/mL
- MIC [8]: 265 (265) μM/mL
- MBC (in brackets) [9]: 0.3 μM/mL
- MIC [9]: 0.1 μM/mL
- IC50 against A549 cells [10]: 29.8 ± 3.2 µg/mL
